≈ marks a conversion by molar mass, not a printed value.
Assays:
rat spleen cells = format: cell-based
human TLR7 = target: T1, human TLR7 (Homo sapiens, UniProt Q9NYK1); assay: Human TLR7 assay (HEK293 SEAP reporter); format: cell-based; conditions: minimal effective concentration to induce SEAP release; HEK293 with recombinant human TLR7, overnight incubation at 37° C., 0.1% DMSO
T1 construct: expressed in transfected cells; host or cells: HEK293 cell line stably expressing the pNiFty2-SEAP reporter plasmid
T1 sequence (Q9NYK1 27-1049): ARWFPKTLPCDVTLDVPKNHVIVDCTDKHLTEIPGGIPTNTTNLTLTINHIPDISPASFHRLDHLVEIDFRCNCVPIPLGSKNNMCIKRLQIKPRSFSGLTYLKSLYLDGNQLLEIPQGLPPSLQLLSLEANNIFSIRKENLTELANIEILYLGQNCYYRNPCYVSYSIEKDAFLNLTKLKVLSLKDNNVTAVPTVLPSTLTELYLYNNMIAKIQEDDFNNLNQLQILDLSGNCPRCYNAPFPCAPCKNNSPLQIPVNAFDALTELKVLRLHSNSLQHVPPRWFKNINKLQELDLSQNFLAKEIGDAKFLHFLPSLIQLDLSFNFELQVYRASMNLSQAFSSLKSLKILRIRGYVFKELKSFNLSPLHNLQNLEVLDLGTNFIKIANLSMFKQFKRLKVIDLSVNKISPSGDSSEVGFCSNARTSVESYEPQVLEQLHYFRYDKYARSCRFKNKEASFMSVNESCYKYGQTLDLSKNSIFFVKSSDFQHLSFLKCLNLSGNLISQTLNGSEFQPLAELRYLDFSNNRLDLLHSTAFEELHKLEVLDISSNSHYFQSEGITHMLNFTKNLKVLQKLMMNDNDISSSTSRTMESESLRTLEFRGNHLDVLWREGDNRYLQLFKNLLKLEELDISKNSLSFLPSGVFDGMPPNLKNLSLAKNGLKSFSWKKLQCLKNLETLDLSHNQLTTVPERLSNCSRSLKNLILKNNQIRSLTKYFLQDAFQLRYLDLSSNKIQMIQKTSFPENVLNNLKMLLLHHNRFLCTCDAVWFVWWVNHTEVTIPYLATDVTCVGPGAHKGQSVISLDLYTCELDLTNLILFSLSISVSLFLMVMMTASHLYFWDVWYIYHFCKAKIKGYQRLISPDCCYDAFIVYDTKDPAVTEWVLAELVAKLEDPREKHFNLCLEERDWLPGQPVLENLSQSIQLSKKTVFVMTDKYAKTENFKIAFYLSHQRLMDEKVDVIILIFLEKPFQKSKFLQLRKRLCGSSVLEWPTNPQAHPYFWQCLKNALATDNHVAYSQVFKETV
Source text: Recombinant human TLR7 was stably expressed in a HEK293 cell line already stably expressing the pNiFty2-SEAP reporter plasmid; integration of the reporter gene was maintained by selection with the antibiotic zeocin. The most common variant sequence of human TLR7 (represented by the EMBL sequence AF240467) was cloned into the mammalian cell expression vector pUNO and transfected into this reporter cell-line. Transfectants with stable expression were selected using the antibiotic blasticidin. In this reporter cell-line, expression of secreted alkaline phosphatase (SEAP) is controlled by an NFkB/ELAM-1 composite promoter comprising five NFkB sites combined with the proximal ELAM-1 promoter. TLR signaling leads to the translocation of NFkB and activation of the promoter results in expression of the SEAP gene. TLR7-specific activation was assessed by determining the level of SEAP produced following overnight incubation of the cells at 37° C. with the standard compound in the presence of 0.1% (v/v) dimethylsulfoxide (DMSO). Concentration dependent induction of SEAP production by compounds was expressed as the minimal effective concentration of compound to induce SEAP release (pMEC).

Solubility testing = format: physicochemical; conditions: aqueous buffer, thermodynamic from solid; 0.1 M phosphate buffer, shaken overnight at 20° C., HPLC/UV; Examples of the invention
Procedure: Saturated solutions for determining the solubility were prepared by placing about 0.3-3.0 ml of 0.1 M phosphare buffer in glass screw-top sample tubes along with some of the test compound. The tubes were then shaken overnight at constant temperature (20° C.). After shaking, undissolved material should be present in the solution, and more test compound should be added and shaking continued if this is not the case. The samples were then transferred to a centrifuge tube and centrifuged using a Heraeus Biofuge Fresco centrifuge at 13000 rpm for 30 minutes. The supernatant was then removed, placed in a new centrifuge tube and centrifuged again for 30 minutes at 13000 rpm. The undissolved material formed a pellet at the bottom of the tube and the liquid above the pellet was removed and was ready for assaying. The solution was then analysed using HPLC with UV quantification. A standard was also prepared by accurately weighing a sample of the test compound and dissolving it in a suitable volume of a solvent that will dissolve it completely (typically, DMSO, ethanol or methanol). This sample was then analysed by HPLC/UV.
The solubility was calculated from the observed peak areas in the HPLC/UV chromatograms along with corrections for any dilutions of the sample and differences in injection volumes. The following equation was used: […]

Row | Compound | Log MEC (rat spleen cells) | pMEC (human TLR7) | solubility (Solubility testing) [µg/mL]
1 | CCCCOc1nc(N)c2[nH]c(=O)n(CCCN(CCCN3CCCC3)Cc3cccc(CC(=O)OC)c3)c2n1 [Example 2, Methyl (3-{[[3-(6-amino-2-butoxy-8-oxo-7,8-dihydro-9H-purin-9-yl)propyl](3-pyrrolidin-1-ylpropyl)amino]methyl}phenyl)acetate] | 9.5 | 7.4 | 1940 (≈ 3500 µM)
2 | CCCCOc1nc(N)c2[nH]c(=O)n(CCCN(CCN(C)C)Cc3cccc(CC(=O)OC)c3)c2n1 [Example 4, Methyl [3-({[3-(6-amino-2-butoxy-8-oxo-7,8-dihydro-9H-purin-9-yl)propyl][2-(dimethylamino)ethyl]amino}methyl)phenyl]acetate] | 9.5 | – | 830 (≈ 1620 µM)
3 | CCCCOc1nc(N)c2[nH]c(=O)n(CCCN(CCCN(C)C)Cc3cccc(CC(=O)OC)c3)c2n1 [Example 1, Methyl [3-({[3-(6-amino-2-butoxy-8-oxo-7,8-dihydro-9H-purin-9-yl)propyl][3-(dimethylamino)propyl]amino}methyl)phenyl]acetate] | 9.5 | – | 980 (≈ 1860 µM)
4 | CCCCOc1nc(N)c2[nH]c(=O)n(CCCCN(CCCN3CCN(C)CC3)Cc3cccc(CC(=O)OC)c3)c2n1 [Example 6, Methyl [3-({[4-(6-amino-2-butoxy-8-oxo-7,8-dihydro-9H-purin-9-yl)butyl][3-(4-methylpiperazin-1-yl)propyl]amino}methyl)phenyl]acetate] | 9.0 | – | 1210 (≈ 2030 µM)
5 | CCCCOc1nc(N)c2[nH]c(=O)n(CCCN(CCCNC)Cc3cccc(CC(=O)OC)c3)c2n1 [Example 5, Methyl [3-({[3-(6-amino-2-butoxy-8-oxo-7,8-dihydro-9H-purin-9-yl)propyl][3-(methylamino)propyl]amino}methyl)phenyl]acetate] | 9.5 | 7.2 | 1820 (≈ 3540 µM)
6 | CCCCOc1nc(N)c2[nH]c(=O)n(CCCN(CCCN3CCN(C)CC3)Cc3cccc(CC(=O)OC)c3)c2n1 [Example 3, Methyl [3-({[3-(6-amino-2-butoxy-8-oxo-7,8-dihydro-9H-purin-9-yl)propyl][3-(4-methylpiperazin-1-yl)propyl]amino}methyl)phenyl]acetate] | 9.5 | 7.7 | 850 (≈ 1460 µM)

From US20090143400A1, “PURINE DERIVATIVES HAVING IMMUNO-MODULATING PROPERTIES” (priority 2005, published 2009)
